In patent publication US9504702B2, “Methods of inhibition of protein fucosylation in vivo using fucose analogs” (Seattle Genetics, Inc., priority 2010, dated 2016):
“Also recorded” adds a separate entry of the source.

Assays:
[1] = system: LP-1 cells (1,6-fucosylation on the antibody); experiment: Fucosylation status of LP-1-generated IgG by reducing PLRP-MS; format: cell-based, human; settings: 100 μM, 5 days, in words
From the text: To further define the results of the AOL dot blot, samples of the IgGs produced by cells treated with the following fucose analogs (that gave moderate to strong decreases in the dot blot AOL signal) were isolated and examined by reducing PLRP-MS to verify the fucosylation status using the MW of the heavy chain: alkynyl fucose peracetate; 5-vinylfucose tetraaceate; 5-methylketofucose tetraacetate; 6-bromofucose tetraacetate; 6-fluorofucose tetraacetate; 5-ethylfucose tetraacetate; 5-epoxyfucose tetraacetate; 6′6-difluorofucose tetraacetate; 6-keto-6-ethyl fucose tetraacetate; and 2-fluorofucose peracetate.
40 mL samples of LP-1 cells (250,000 cells/mL) were treated with 100 μM of a fucose analog for 5 days as described above, and the IgGs were purified as described using protein A resin. The yields were estimated by UV spectroscopy assuming an extinction coefficient of 1.4 AU/(mg/mL). Seven of the ten compounds yielded enough IgG to perform the analysis (use of SGD-2067, SGD-1964, and SGD-2020 yielded <10 μg of IgG, likely due to toxicity of the analogs to the cells). The remaining IgGs were reduced with 10 mM DTT at 37° C. for 15 min and were separated on PLRP followed by MS analysis using a QTOF mass spectrometer. The resulting heavy chain peaks were examined and compared to the IgG generated by untreated cells.
The mass spectrometry signals were evaluated by comparing the peak height of the heavy chain versus heavy chain minus fucose and heavy chain minus fucose plus the mass of the fucose analog (which would arise if there was incorporation of the analog into the antibody carbohydrate).

[2] = system: A20 murine lymphoma cells; experiment: Tumor vaccine model, killed A20 immunization and live A20 challenge; format: in vivo, Female Balb/c mice; settings: 50 mM in drinking water days -14 through +21
Experimental: Female Balb/c mice were immunized by subcutaneous implantation of 1 million A20 murine lymphoma cells (killed by irradiation) on day −21 and day −7. Another group of mice were not given any immunization. On day 0, all mice were inoculated iv with 1.5 or 5 million live A20 cells. On days −14 through +21, mice were provided with 50 mM 2-fluorofucose (SGD-2083) in their drinking water or given regular drinking water. The 8 treatment groups were as follows: • 1. No immunization, 1.5 million live A20 cells, regular drinking water • 2. No immunization, 5 million live A20 cells, regular drinking water • 3. No immunization, 1.5 million live A20 cells, 50 mM SGD-2083 in drinking water • 4. No immunization, 5 million live A20 cells, 50 mM SGD-2083 in drinking water • 5. Immunized, 1.5 million live A20 cells, regular drinking water • 6. Immunized, 5 million live A20 cells, regular drinking water • 7. Immunized, 1.5 million live A20 cells, 50 mM SGD-2083 in drinking water • 8. Immunized, 5 million live A20 cells, 50 mM SGD-2083 in drinking water Results

[3] = system: core antibody fucosylation (endogenous antibodies); experiment: Antibody fucosylation in vivo following oral administration, dose study (Example 3), dot blot; design: species or system Female BALC/c mice
Experimental: In this study, the effects of oral administration of the fucose analog 2-fluorofucose (SGD-2083) were further examined. Female BALC/c mice were offered […] 2-fluorofucose in their drinking water for 14 days. Mice were immunized with TiterMAX Classic and offered 1, 10 and 100 mM 2-fluorofucose in their drinking water for an additional 7 days. Mice were then terminally bled and serum obtained. Endogenous antibodies were purified by passing the serum over a protein A column
The collected antibodies were evaluated for fucosylation levels by dot blot as follows. Antibodies from untreated and treated animals (0.5 μg each), as well as standards of cAC10 with 0 to 100% fucose (only study 1), were blotted onto a nitrocellulose membrane. The proteins levels were visualized with Ponceau S. The blot was probed with biotinylated AOL lectin and developed with streptavidin HRP and ECL (as described above). Gel loading (visible) and fucose signals (bioluminescence) were measured with an Alpha Innotech camera and quantitated with the machine software.

Ramos Burkitt lymphoma = experiment: Xenograft of pre-treated Ramos cells (Example 7, Study 2); format: in vivo, female SCID mice; settings: 20 mM in drinking water
Experimental: (§1) To further evaluate the activity of these fucose analogs, further studies were performed in vivo using tumor cells that had been pre-treated by culturing in the presence of a fucose analog, or using untreated tumor cells. Tumor cells were implanted into 10 mice per group as follows. For the LS174T, PC-3, and Caki-1 cell lines, 5×10^5 cells in 25% Matrigel were implanted subcutaneously into female nude mice. For HL-60 and Ramos cell lines, 5×10^6 cells were implanted subcutaneously into female SCID mice. For mice implanted with untreated tumor cells, mice were provided regular drinking water. For mice implanted with tumor cells pre-treated with 2-fluorofucose (SGD-2083), the mice were provided drinking water supplemented with 20 mM 2-fluorofucose (SGD-2083). For mice implanted with tumor cells pre-treated with alkylnyl fucose (SGD-1887), the mice were provided with regular drinking water.
(§2) After 3 weeks of receiving 2-fluorofucose-containing drinking water, mice were returned to regular drinking water, except for mice with Caki-1 tumors. The latter mice were returned to regular drinking water for one week. After the week of receiving regular water, mice were randomized to two groups of 5 each to receive drinking water supplemented with 20 mM 2-fluorofucose or regular drinking water. Mice were sacrificed when tumors reached about 1000 mm^3.

[4] = system: LS174T colon adenocarcinoma cells; experiment: Xenograft of LS174T cells without prior treatment (Example 7, Study 3); format: in vivo, female nude mice
Experimental: In a third study, tumor cells were implanted without prior treatment with a fucose analog. LS174T colon adenocarcinoma cells (5×10^5 cells in 25% Matrigel) were implanted subcutaneously into female nude mice. Mice were supplied with 50 mM 2-fluorofucose (SGD-2083) in their drinking water from 7 days before implant until 21 days after implant, or were supplied with regular drinking water.

[5] = system: P-selectin ligand on Ramos cells; experiment: Cell surface P-selectin ligand by FACS, P-selectin fusion protein, Ramos; format: cell-based, human
Experimental: 100 μM of each inhibitor was used under standard culture conditions for approximately 1-2 weeks with regular changes of culture medium including fresh inhibitor. After the incubation period, the cells were analyzed by FACS using four different detection reagents: biotinylated-Lens culimaris agglutinin-A (LCA), anti-Lewis' antibody (anti-SSEA1), an anti-Lewis^y antibody (cBR96), and a Recombinant Human P-Selectin/CD62P/Fc Fusion protein. The procedure involved washing of the cells with FACS buffer (PBS+10% bovine serum albumin+0.02% sodium azide) 3 times followed by incubation with the primary detection reagent for 1 hr at 4° C., followed by 3 washes with FACS buffer and then incubation with the secondary detection reagent for 1 hr at 4° C. The cells were finally washed with FACS buffer 3 times and resuspended in FACS buffer and examined using a BD FACScan instrument. […] The P-selectin fusion protein detects P-selectin ligand present on the surface of cells, an interaction which involves the sialyl Lewis' epitope present of the P-selectin ligand.

PC-3 = experiment: Xenograft of pre-treated PC-3 cells (Example 7, Study 2); format: in vivo, female nude mice; settings: 20 mM in drinking water
Experimental: as §1, §2

For `C#CC(OC(C)=O)[C@@H](OC(C)=O)[C@@H](OC(C)=O)[C@@H](C=O)OC(C)=O` (some centres unmarked) [SGD-1890, 5-ethynylarabinose tetraacetate], the “PLRP/MS (inhibition or incorporation)” value [1] was “complete inhibition; also recorded: Full inhibitor”.
With `C[C@H](O)[C@@H](O)[C@@H](O)[C@H](F)C=O` [SGD-2083, 2-fluoro-2-deoxy fucose] the “survival after live A20 challenge” value ([2]; immunized) was “still alive at data collection”, the “survival after live A20 challenge” value ([2]; no immunization, versus regular drinking water) was “survived a few days longer” and the antibody fucosylation levels ([3]; 1 mM in drinking water) was “highest in the untreated control and 1 mM 2-fluorofucose groups”. The “fucosylation levels of antibodies” value ([3]; 1, 10 and 100 mM in drinking water, 21 days) was “dose-dependent decrease”, the antibody fucosylation levels ([3]; intermediate concentration (10 mM) in drinking water, compared with 100 mM) was “nearly as depleted of fucose as the high concentration” and the tumor growth (Ramos Burkitt lymphoma) was “No change in tumor growth”. The tumor growth ([4]; 50 mM in drinking water) was “substantial inhibition of tumor growth”, the average tumor size ([4]; 50 mM in drinking water from 7 days before until 21 days after implant, regular water 734 mm^3) was 110 mm^3 and the “signal for P-selectin ligand (increase upon treatment)” value [5] was “not observed”. The tumor growth (PC-3) was “tumor growth inhibition in vivo was seen”.
